For series [1], the target named is T1, human H subunit (ATP6V1H) (Homo sapiens, UniProt Q9UI12).
T1 construct: GST (cleaved yes); host or cells: Rosetta2(DE3)pLysS (E. coli)
The series is described as follows: Bio-layer interferometry (BLI). The format is binding. The conditions noted are these: biotinylated-249C on streptavidin sensors. From the text:
Figure 4. […] (A) Model of the reversible assembly of V-ATPase. Cytosolic V1 subunits are depicted in blue and membrane Vo subunits in purple. Upon V-ATPase assembly, ATP is hydrolyzed to ADP accompanied by proton (H^+) pumping and luminal acidification (decrease in pH) (Created with BioRender). […] The amount of subunit B2 present in the membrane fraction indicates the amount of assembled V-ATPase. A representative Western blot is presented. […] Cells were mechanically lysed, and a fraction containing FITC-Dextran-loaded lysosomes was isolated by sedimentation centrifugation. Fluorescence was measured over time to assess pH-dependent quenching following addition of 1 mM magnesium-ATP (predetermined). […] Representative of 5 individual experiments with n = 3 for each is presented (mean ± SD) (D) Mammalian V-ATPase activity measured in the absence and presence of 1 μM 249C and 1 μM BafA1. Data shown are mean ± SD; n = 3. Bio-layer inferometry (BLI) of (E) the entire mammalian V-ATPase complex (association protein concentrations: 30, 60, 120, 240 nM) and (F) the individual human H subunit (ATP6V1H) (association protein concentrations: 16,800 and 21,000 nM) against biotinylated-249C loaded onto streptavidin sensor tips. A reference sensor was subtracted from the signal to blank the system. The ForteBio Octet® Software on the BLI system was used to calculate Kd s. […]
A general note: Biolayer interferometry detects binding as a change in optical thickness at a sensor tip.

The subject of series [2] is SW48 KRASG12V/+ xenografts. In words: SW48 isogenic colon xenograft. The format is in vivo, mouse. The conditions noted are these: 10 mg/kg i.p., 14 days of treatment. From the text: (§1) To explore the relationship between individual KRAS mutants and 249C sensitivity in vivo, we used a colon cancer (SW48) xenograft model with a set of colon cancer cell lines which differ in KRAS mutation status but are otherwise genetically matched. Stable derivatives of the SW48 cell line were derived by introducing a KRASG12D, KRASG12V or KRASG13D point mutation via rrAV gene editing technology previously reported. To compare KRAS mutants in a cancer-relevant system, four cell lines: (SW48, SW48 KRASG12D/+, SW48 KRASG12V/+ and SW48 KRASG13D/+) were injected into athymic mice and 14 days of treatment (10 mg/kg 249C or vehicle control, i.p., n = 5 for all arms) was started when the average tumor volume reached approximately 100–200 mm^3 following random segregation into groups. As before, KRASG13D tumors were most sensitive to 249C both in vitro and in vivo (Fig. 6d–e). […] Changes in tumor volume are presented for animals bearing isogenic SW48 cells: parental/KRASWT (Fig. 6f), KRASG12D/+ (Fig. 6g), KRASG12V/+, (Fig. 6h), KRASG13D/+ (Fig. 6i). Note that SW48 tumors with different KRAS variants show different basal growth rates, as reported previously. […] Further, no significant changes in body weight of the mice were observed during the study (Fig. 6j).
(§2) For cell line xenografts, 6 × 10^6 SW48 cells were subcutaneously injected into the flanks of 6–8-week old athymic nude female mice (Taconic model # NCRNU-F, CrTac:NCR-Foxn1 sp/sp) and tumor growth was monitored with caliper measurement. Once the mean tumor reached a certain volume (between 100–200 mm^3), animals were randomized into different treatment groups of 5 animals per group. 249C for in vivo use was formulated in 0.5% Methylcellulose and dosed i.p. (10 mg/kg, for 2 weeks). Antitumor activity was determined by calculating the treatment over control (T/C) tumor volume ratio at the end of the study. Either at the end of each study, of if any animal reached a humane endpoint, animals were euthanized with CO2 followed by cervical dislocation or another secondary method of euthanasia approved by the IACUC protocol. Mouse manipulations were performed in accordance with UCSF’s IACUC protocol AN179973.Mice were housed in the UCSF Animal Care Facility LARC at the Helen Diller Family Cancer Center at UCSF Mission Bay. Mice were housed in a specific-pathogen free individual suite. They are housed up to 5 per cage in ventilator cages, with ad libitum food and water on a 12-hour light cycle and controlled temperature and humidity conditions (67–74°F and 30–70%).

In series [3] the test system is SW48 KRASG12D/+ xenografts. In words: SW48 isogenic colon xenograft. The format is in vivo, mouse. The conditions noted are these: 10 mg/kg i.p., 14 days of treatment.
Description: as §1, §2

The test system of series [4] is SW48 parental (KRAS WT) xenografts. The series is described as follows: SW48 isogenic colon xenograft. The format is in vivo, mouse. The conditions noted are these: 10 mg/kg i.p., 14 days of treatment.
Description: as §1, §2

Series [5] concerns SW48 KRASG13D/+ xenografts. The series is described as follows: SW48 isogenic colon xenograft. The conditions noted are these: 10 mg/kg i.p., 14 days of treatment. The format is in vivo, mouse.
Description: as §1, §2

Series [6] in a line: Maximum tolerated dose study. The format is in vivo. From the text:
MTD studies were outsourced and performed at a local CRO based on their established protocols.

Structures are written as SMILES.

T1 sequence (Q9UI12 whole entry): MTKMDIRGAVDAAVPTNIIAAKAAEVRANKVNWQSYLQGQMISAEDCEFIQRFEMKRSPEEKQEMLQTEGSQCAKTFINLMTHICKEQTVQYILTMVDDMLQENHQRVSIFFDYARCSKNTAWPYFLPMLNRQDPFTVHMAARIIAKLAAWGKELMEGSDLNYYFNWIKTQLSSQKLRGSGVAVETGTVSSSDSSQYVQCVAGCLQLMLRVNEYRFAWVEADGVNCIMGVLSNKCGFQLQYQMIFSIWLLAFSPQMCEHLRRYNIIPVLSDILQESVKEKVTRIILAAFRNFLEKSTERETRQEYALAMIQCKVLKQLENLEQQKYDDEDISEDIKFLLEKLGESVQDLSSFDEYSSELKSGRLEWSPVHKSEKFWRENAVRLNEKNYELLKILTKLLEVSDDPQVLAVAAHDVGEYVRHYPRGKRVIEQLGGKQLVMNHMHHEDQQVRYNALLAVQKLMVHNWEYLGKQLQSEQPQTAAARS

Turning to `CN1CCOC(CNC(=O)C2(C)C(c3ccc(Cl)o3)C(c3ccc(F)cc3F)=NN2c2ccc(F)cc2F)C1` (stereo not shown) [Compound 249C], the Kd in series [1] is 0.501 µM. In addition, the “Treatment/Control on Day 21” value came out at 55% in series [2], 75% in series [3] and 18% in series [5]. The “Tumor Growth Inhibition (TGI) on Day 21” value amounted to 45% in series [2], 25% in series [3], 0% in series [4] and 82% in series [5]. In series [6] (150 mg/kg, after 21 days in vivo), the body weight result is “no significant difference in body weight”. The molecule further returned an MTD at 21 days in series [6] (mouse, in vivo, mice) of 150 mg/kg.

The Kd is the equilibrium constant for the complex coming apart. Low values mean a tighter complex, high ones a looser complex. A word on the MTD: it is the highest dose tested that stayed within the study's limit of toxicity. Low values mean poorer tolerability, high ones better tolerability.
